Entries after “also recorded” stand apart in the source; their conditions may differ. Counter-ions that a name gives are not always drawn.
What was measured:
Type in all cases: physicochemical
[1] = Influencing factors stability test (high temperature, high humidity, lighting; XRPD, HPLC, appearance); details: for Purity: HPLC
Method: The petri dishes were then transferred into constant temperature and humidity chambers under three different conditions: high temperature (60 °C, sealed), high relative humidity (RH: 90 ± 5%, 25 °C, open), and lighting (5000 ± 500 Lux, open). The samples were tested on Day 5 and Day 10.

[2] = Hygroscopicity by Dynamic Vapor Sorption (DVS)
Method: [table] […] The sample, after DVS testing, was then analyzed by XRPD. Table 8 DVS test results of sodium salts

[3] = High pressure property test (XRPD after pressing); details: pressed at 10 MPa for 5 minutes, 13 mm die
[4] = Simulated granulation test (ethanol wetting and grinding, XRPD); details: wetted with ethanol, then ground
Method: The resulting solid and the sample without the addition of wetting ethanol were analyzed by XRPD, respectively.

[5] = Day 5, High humidity (RH 90 ± 5%, 25 °C, open)
[6] = Day 5, High temperature (60 °C, sealed)
[7] = Day 5, Lighting (5000 ± 500 Lux, open)
[8] = Day 10, High humidity (RH 90 ± 5%, 25 °C, open)
[9] = Day 10, High temperature (60 °C, sealed)
[10] = Day 10, Lighting (5000 ± 500 Lux, open)

Compound: C[C@H]1N2C(=O)c3c(O)c(=O)c(C(=O)NCc4ccc(F)cc4F)cn3C[C@@H]2OCC12CC2 [Sodium salt crystal form A]
- Property ([1]; Day 0): off-white solid
- XRPD ([1]; Day 0): Crystal Form A
- Purity ([1]; Day 0): 99.57%
- Property [1, 5]: off-white solid
- XRPD [1, 5]: Crystal Form A
- Purity [1, 5]: 99.64%
- Property [1, 6]: off-white solid
- XRPD [1, 6]: Crystal Form A
- Purity [1, 6]: 99.69%
- Property [1, 7]: off-white solid
- XRPD [1, 7]: Crystal Form A
- Purity [1, 7]: 99.68%
- Property [1, 8]: off-white solid
- XRPD [1, 8]: Crystal Form A
- Purity [1, 8]: 99.72%
- Property [1, 9]: off-white solid
- XRPD [1, 9]: Crystal Form A
- Purity [1, 9]: 99.72%
- Property [1, 10]: off-white solid
- XRPD [1, 10]: Crystal Form A
- Purity [1, 10]: 99.72%
- weight gain at 80% relative humidity (RH) ([2]; DVS, 80% RH, 25°C): 0.69%
- Adsorption ([2]; Relative humidity 0%, adsorption (cycle 1 of 2), 25°C): 0.0000%
- Adsorption ([2]; Relative humidity 0%, adsorption (cycle 2 of 2), 25°C): -0.0471%
- Desorption ([2]; Relative humidity 0%, desorption (cycle 2 of 2), 25°C): -0.0614%
- Desorption ([2]; Relative humidity 0%, first desorption (cycle 1 of 2), 25°C): -0.0471%
- Adsorption ([2]; Relative humidity 10%, adsorption (cycle 1 of 2), 25°C): 0.0668%
- Adsorption ([2]; Relative humidity 10%, adsorption (cycle 2 of 2), 25°C): 0.0230%
- Desorption ([2]; Relative humidity 10%, desorption (cycle 2 of 2), 25°C): 0.0147%
- Desorption ([2]; Relative humidity 10%, first desorption (cycle 1 of 2), 25°C): 0.0285%
- Adsorption ([2]; Relative humidity 20%, adsorption (cycle 1 of 2), 25°C): 0.1197%
- Adsorption ([2]; Relative humidity 20%, adsorption (cycle 2 of 2), 25°C): 0.0818%
- Desorption ([2]; Relative humidity 20%, desorption (cycle 2 of 2), 25°C): 0.0758%
- Desorption ([2]; Relative humidity 20%, first desorption (cycle 1 of 2), 25°C): 0.0891%
- Adsorption ([2]; Relative humidity 30%, adsorption (cycle 1 of 2), 25°C): 0.1725%
- Adsorption ([2]; Relative humidity 30%, adsorption (cycle 2 of 2), 25°C): 0.1394%
- Desorption ([2]; Relative humidity 30%, desorption (cycle 2 of 2), 25°C): 0.1373%
- Desorption ([2]; Relative humidity 30%, first desorption (cycle 1 of 2), 25°C): 0.1498%
- Adsorption ([2]; Relative humidity 40%, adsorption (cycle 1 of 2), 25°C): 0.2282%
- Adsorption ([2]; Relative humidity 40%, adsorption (cycle 2 of 2), 25°C): 0.2001%
- Desorption ([2]; Relative humidity 40%, desorption (cycle 2 of 2), 25°C): 0.2149%
- Desorption ([2]; Relative humidity 40%, first desorption (cycle 1 of 2), 25°C): 0.2239%
- Adsorption ([2]; Relative humidity 50%, adsorption (cycle 1 of 2), 25°C): 0.2857%
- Adsorption ([2]; Relative humidity 50%, adsorption (cycle 2 of 2), 25°C): 0.2641%
- Desorption ([2]; Relative humidity 50%, desorption (cycle 2 of 2), 25°C): 0.3200%
- Desorption ([2]; Relative humidity 50%, first desorption (cycle 1 of 2), 25°C): 0.3320%
- Adsorption ([2]; Relative humidity 60%, adsorption (cycle 1 of 2), 25°C): 0.3539%
- Adsorption ([2]; Relative humidity 60%, adsorption (cycle 2 of 2), 25°C): 0.3365%
- Desorption ([2]; Relative humidity 60%, desorption (cycle 2 of 2), 25°C): 0.5185%
- Desorption ([2]; Relative humidity 60%, first desorption (cycle 1 of 2), 25°C): 0.5250%
- Adsorption ([2]; Relative humidity 70%, adsorption (cycle 1 of 2), 25°C): 0.5505%
- Adsorption ([2]; Relative humidity 70%, adsorption (cycle 2 of 2), 25°C): 0.5627%
- Desorption ([2]; Relative humidity 70%, desorption (cycle 2 of 2), 25°C): 0.6037%
- Desorption ([2]; Relative humidity 70%, first desorption (cycle 1 of 2), 25°C): 0.6126%
- Adsorption ([2]; Relative humidity 80%, adsorption (cycle 1 of 2), 25°C): 0.6895%
- Adsorption ([2]; Relative humidity 80%, adsorption (cycle 2 of 2), 25°C): 0.6928%
- Desorption ([2]; Relative humidity 80%, desorption (cycle 2 of 2), 25°C): 0.7082%
- Desorption ([2]; Relative humidity 80%, first desorption (cycle 1 of 2), 25°C): 0.7176%
- Adsorption ([2]; Relative humidity 90%, adsorption (cycle 1 of 2), 25°C): 0.9012%
- Adsorption ([2]; Relative humidity 90%, adsorption (cycle 2 of 2), 25°C): 0.8889%
- Desorption ([2]; Relative humidity 90%, desorption (cycle 2 of 2), 25°C): 0.8889%
- Desorption ([2]; Relative humidity 90%, first desorption (cycle 1 of 2), 25°C): 0.9012%
- After DVS testing Crystal form change ([2]; XRPD after DVS testing): did not change; also recorded: Crystal form A, unchanged
- crystal form after the high-pressure test (XRPD) [3]: did not change
- change in crystal form after ethanol wetting and grinding (XRPD) [4]: did not exhibit a change in crystal form
